The results in this text go back to patent US6506901B2, “Substituted 2-(S)-hydroxy-3-(piperidin-4-yl-methylamino)-propyl ethers and substituted 2-aryl-2-(R)-hydroxy-1-(piperidin-4-yl-methyl)-ethylamine β-3 adrenergic receptor agonists” (Wyeth, priority 2000, dated 2003).

One series deals with T1, human β3 receptors (Homo sapiens, UniProt P13945).
T1 construct: Full length β3 AR clones (402 amino acids) containing the last 6 amino acids of hβ3—AR; expressed in transfected cells; host or cells: CHO cells
T1 sequence (P13945 whole entry): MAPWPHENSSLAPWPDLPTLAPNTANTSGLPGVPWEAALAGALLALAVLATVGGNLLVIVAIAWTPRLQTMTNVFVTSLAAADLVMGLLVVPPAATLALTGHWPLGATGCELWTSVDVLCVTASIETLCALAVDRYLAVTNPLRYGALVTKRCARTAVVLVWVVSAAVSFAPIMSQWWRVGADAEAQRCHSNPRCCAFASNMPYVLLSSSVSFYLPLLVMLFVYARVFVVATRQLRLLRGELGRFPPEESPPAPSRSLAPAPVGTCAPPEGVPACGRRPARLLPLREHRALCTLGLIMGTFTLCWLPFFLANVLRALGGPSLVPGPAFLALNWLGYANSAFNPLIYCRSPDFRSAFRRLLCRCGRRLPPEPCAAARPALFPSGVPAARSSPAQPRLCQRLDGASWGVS
Nature of the series: cAMP response (SPA) in CHO cells expressing cloned human β3 adrenergic receptor. The format is cell-based. The settings on record: for EC50: CHO cells expressing human β3 receptor, cAMP, 30 min incubation, 10^−9 M to 10^−5 M; for IA(β3): maximal response compared to the maximal response of isoproterenol at 10^−5 M. An outline of the steps:
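CHO cells transfected with cloned human β3-AR were incubated with compound at 37° C for 30 min, stopped with 0.2N HCl and neutralized. cAMP was measured by SPA. Activity is expressed as per cent of the maximal isoproterenol (10^−5 M) response.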

In a further series the test system is β3 human transgenic mice. Nature of the series: Thermogenesis (Oxymax indirect calorimeter) in β3 transgenic (Tg) mice. The format is in vivo, mice (FVB). The settings on record: percent increase in thermogenesis over baseline; for change in vivo at 10 mg/kg: Mus musculus, ip, IP 10 mg/kg. From the text: Evaluation in β3 Knockout(KO) and β3 Transgenic(Tg) Mice: The ability of compounds of this invention to treat or inhibit disorders related to insulin resistance or hyperglycemia was also confirmed with representative compounds of this invention in an in vivo standard pharmacological test procedure which compared thermogenesis in transgenic mice (Tg mice) and β3-knockout mice (KO mice).
β3-Adrenergic receptor knockout mice and β3 human transgenic mice are created on an inbred FVB background (Susulic, V. S., et.al., J. Biol. Chem., 1995, 270 (49), 29483-29492). Female FVB β3 transgenic and β3 knockout mice were used to determine in vivo activity and selectivity of β3 agonists. […] These compounds were also selective in being 100-fold less responsive and partial agonists when tested in β1 and β2 transfected CHO cells. Compounds were tested for increased thermogenesis using the Oxymax indirect calorimeter (Columbus Instruments, Columbus, Ohio). Fed animals were placed in chambers for 3 hours to obtain baseline O2 and CO2 values. Eight fed mice were weighed in pairs and placed in 4 chambers, two per chamber. The relative gas content of each chamber was sampled and recorded at 10 to 12 minute intervals. For each sample, energy expenditure values were calculated by the Oxymax and expressed as kcal/hr. After 3 hours of baseline measurement, the mice were removed, treated and replaced in the chambers. The β3 agonists were injected at doses between 0.1 and 20 mg/kg i.p. and between 1.0 and 30 mg/kg for oral administration. Compounds in 10 mM or 10 mg/ml DMSO solutions were suspended in 0.5% methylcellulose: 0.1% tween-80 and injected i.p. or administered by oral gavage. Some compounds were suspended in 5.0% tween-80 for oral administration. Post-treatment kcal/hr values were taken between 40 minutes and 2.5 hours later. The 6 to 10 sample sections of the pre-treatment and post-treatment periods, which appear to best represent stable resting thermogenesis, were selected. Each of these sample values was corrected for body weight and used such that each pair of mice serves as its own baseline for both T test and percent increase in thermogenesis calculations. An ANOVA and a one sided T test (H1: Post>Pre) are performed using the SAS software modified to down weight extreme values. In a separate set of calculations, values that appear to be too high to represent resting thermogenesis are discarded (activity monitor sampling associated spikes in thermogenesis with ambulatory activity). The mean baseline value for each chamber is subtracted from mean post-treatment value for that chamber. This baseline-subtracted value is divided by the mean baseline value and multiplied by 100 to obtain a percent increase in thermogenesis for each chamber. The combined mean percent increase, standard deviation, and standard error of the mean for each chamber is calculated. Compounds were considered active if they were able to produce a statistically significant 15% increase in thermogenesis in β3 transgenic mice and no significant increase in β3 knockout mice.

Counter-ions that a name gives are not always drawn.

A word on the melting point: it is the temperature of the solid-liquid transition. `O/N=C1\c2ccccc2-c2c(OC[C@@H](O)CNCC3CCN(c4ccnc5cc(C(F)(F)F)ccc45)CC3)cccc21` (as salt: hydrochloride) [Example 4, 4-((2S)-2-Hydroxy-3-{[1-(7-trifluoromethyl-quinolin-4-yl)-piperidin-4-ylmethyl]-amino}-propoxy)-fluoren-9-one Oxime]: the melting point amounted to 171 °C. `O[C@@H](CNCC1CCN(c2cc(C(F)(F)F)ccn2)CC1)COc1cccc2[nH]c3ccccc3c12` [Example 5, (2S)-1-(9H-Carbazol-4-yloxy)-3-[(4′-trifluoromethyl-3,4,5,6-tetrahydro-2H-[1,2′]bipyridinyl-4-ylmethyl)-amino]-propan-2-ol]: the melting point lay in the range of 137 to 138 °C.

As for `O[C@@H](CNCC1CCN(CCC(F)(F)F)CC1)COc1ccc(Br)c2[nH]c3ccccc3c12` [Example 16, (2S)-1-(1-Bromo-9H-carbazol-4-yloxy)-3-{[1-(3,3,3-trifluoro-propyl)-piperidin-4-ylmethyl]-amino}-propan-2-ol], the melting point was 79 °C. In general, EC50 refers to the concentration needed to bring the measured effect to its halfway point. Read a high EC50 as weaker potency. In the case of `OCCCCCCCCCCCCN1CCC(CNC[C@H](O)COc2cccc3[nH]c4ccccc4c23)CC1` [Example 30, 12-(4-{[(2S)-3-(9H-Carbazol-4-yloxy)-2-hydroxy-propylamino]-methyl}-piperidin-1-yl)-dodecan-1-ol], the melting point came out at 110 °C. In addition, at human β3 receptors, the EC50 is 1240 nM and the “IA(β3)” value came out at 0.53. As to `O=C(O)c1cccc(NC(=O)N2CCC(CNC[C@H](O)COc3cccc4[nH]c5ccccc5c34)CC2)c1` [Example 51, 3-[(4-{[(2S)-3-(9H-Carbazol-4-yloxy)-2-hydroxy-propylamino]-methyl}-piperidine-1-carbonyl)-amino]-benzoic Acid], the melting point is 238 to 240 °C (dec.). In turn, `O=C(Nc1ccccc1)Nc1ccc(S(=O)(=O)N2CCC(CNC[C@H](O)COc3ccc(O)cc3)CC2)cc1` [Example 63, 1-[4-(4-{[(2S)-2-Hydroxy-3-(4-hydroxy-phenoxy)-propylamino]-methyl}-piperidine-1-sulfonyl)-phenyl]-3-phenyl-urea] yielded a change in vivo at 10 mg/kg with β3 human transgenic mice (mouse type homo) of 3%. `O=C(Nc1ccc(S(=O)(=O)N2CCC(CNC[C@H](O)COc3ccc(O)cc3)CC2)cc1)Nc1ccccn1` [Example 66, 1-[4-(4-{[(2S)-2-Hydroxy-3-(4-hydroxy-phenoxy)-proplamino]-methyl}-piperidine-1-sulfonyl)-phenyl]-3-pyridin-2-yl-urea] gave a melting point of 189 °C. Further, the change in vivo at 10 mg/kg in the series with β3 human transgenic mice (mouse type homo) is 4%.

As for `CCCCCCCCNC(=O)Nc1ccc(S(=O)(=O)N2CCC(CNC[C@H](O)COc3ccc(O)cc3)CC2)cc1` [Example 69, 1-[4-(4-{[(2S)-2-Hydroxy-3-(4-hydroxy-phenoxy)-propylamino]-methyl}-piperidine-1-sulfonyl)-phenyl]-3-octyl-urea], the change in vivo at 10 mg/kg in the series with β3 human transgenic mice (mouse type hetero) and in the series on β3 human transgenic mice (mouse type homo) was 24% each time. Besides, the “Thermogenesis, Transgenic Mice, Gavage %” value with β3 human transgenic mice (mouse type hetero, gavage 30 mg/kg) is recorded as 14%.

In turn, `CCCCCCCCNC(=O)Nc1ccc(S(=O)(=O)N2CCC(CNC[C@H](O)COc3ccc(O)c4c3CCC(=O)N4)CC2)cc1` [Example 74, 1-[4-(4-{[(2S)-2-Hydroxy-3-(8-hydroxy-2-oxo-1,2,3,4-tetrahydro-quinolin-5-yloxy)-propylamino]-methyl}-piperidine-1-sulfonyl)-phenyl]-3-octyl-urea] returned a change in vivo at 10 mg/kg with β3 human transgenic mice (mouse type homo) of 18%.

Take `O=C(NCCCc1cccs1)Nc1ccc(S(=O)(=O)N2CCC(CNC[C@H](O)COc3ccc(O)cc3)CC2)cc1` [Example 75, 1-[4-(4-1{[(2S)-2-Hydroxy-3-(4-hydroxy-phenoxy)-propylamino]-methyl}-piperidine-1-sulfonyl)-phenyl]-3-(3-thiophen-2-yl-propyl)-urea]: the change in vivo at 10 mg/kg in the series on β3 human transgenic mice (mouse type homo) is 5%. Consider `O=C(NCc1cc(F)ccc1F)Nc1ccc(S(=O)(=O)N2CCC(CNC[C@H](O)COc3ccc(O)cc3)CC2)cc1` [Example 77, 1-(2,5-Difluoro-benzyl)-3-[4-(4-{[(2S)-2-hydroxy-3-(4-hydroxy-phenoxy)-propylamino]-methyl}-piperidine-1-sulfonyl)-phenyl]-urea], for which, in the series with β3 human transgenic mice (mouse type homo), the change in vivo at 10 mg/kg was determined as 4%. In the series with β3 human transgenic mice (mouse type homo), `CS(=O)(=O)Nc1cc(OC[C@@H](O)CNCC2CCN(S(=O)(=O)c3ccc(NC(=O)NCc4cc(F)ccc4F)cc3)CC2)ccc1O` [Example 79, N-(5-{(2S)-3-[(1-{4-[3-(2,5-Difluoro-benzyl)-ureido]-benzenesulfonyl}-piperidin-4-ylmethyl)-amino]-2-hydroxy-propoxy}-2-hydroxy-phenyl)-methanesulfonamide] displayed a change in vivo at 10 mg/kg of 10%. Compound `O=S(=O)(c1ccc(-n2cccn2)cc1)N1CCC(CNC[C@H](O)COc2ccc(O)cc2)CC1` [Example 93, 4-(2-Hydroxy-3-{[1-(4-pyrazol-1-yl-benzenesulfonyl)-piperidin-4-ylmethyl]-amino}-propoxy)-phenol] showed a melting point of 169 to 171 °C. For the same compound, on human β3 receptors, the midpoint of the response, the EC50, lay at 347 nM and the “IA(β3)” value is listed as 0.99.
